One may read the IC50 as the midpoint of a concentration-inhibition curve.

Drawing on ChEMBL document CHEMBL5356970, “Syntheses of the ω-pyridinium-containing very-long-chain ceramides PyrCer(24:1(15Z)) and PyrCer(24:0) and their anticancer activity” (Bioorg Med Chem Lett, 2024), this text covers IC50 for 4 compounds.

SMILES strings stand for the structures. A value given as a limit tells only on which side of the number the result lay.

The test system of the experiment is HepG2. Briefly: Anticancer activity against human HepG2 cells assessed as reduction in cell survival. Type of experiment: functional, cell-based.
As for `CCCCCCCC/C=C\CCCCCCCCCCCCCC(=O)N[C@@H](CO)[C@H](O)/C=C/CCCCCCCCCCCCC`, the IC50 is more than 200 µM.

Turning to `CCCCCCCCCCCCC/C=C/[C@@H](O)[C@H](CO)NC(=O)CCCCCCCCCCCCCCCCCCCCCCC[n+]1ccccc1`, the IC50 turned out to be 9.9 µM.

Consider `CCCCCCCCCCCCC/C=C/[C@@H](O)[C@H](CO)NC(=O)CCCCCCCCCCCCCCCCCCCCCCC`, for which the IC50 was found to be 189 µM.

As for `CCCCCCCCCCCCC/C=C/[C@@H](O)[C@H](CO)NC(=O)CCCCCCCCCCCCC/C=C\CCCCCCCC[n+]1ccccc1`, the IC50 came out at 1 µM.
